Reference: patent publication US7009045B2 (priority 2000, dated 2006)
“And” between values parts separate entries of the source, which are not always exact repeats. Equal entries are not always repeated.

Experiments:
[1] = test system: Candida famata regulatory mutants able to overproduce riboflavin; experiment: Sensitivity to copper ions, solid Burkholder medium (Table 12); type: cell-based; design: key: +++: strong growth; ++: weak growth; +: very weak growth; —: absence of growth
Description: (§1) The sensitivity of the regulatory mutants of the yeast C. famata which overproduce riboflavin in iron rich medium probably due to defects in genes regulating repression (repression mutants), to different ions of heavy metals was studied. For this, the analyzed strains were streaked on the YPD plates and then were replica-plated on Burkholder synthetic medium containing leucine (40 μg/ml). The C.famata mutants L20105-40-1-11, L20105-40-1-17, L20105-3-2-1, L20105-3-2-8 and L20105-3-2-12 (all contained leu2 marker) accumulated 80–100 μg riboflavin/ml. The mutants #75, 4-48, 2-5 produced much higher amounts of riboflavin (200–250 μg/ml) but were prototrophs for leucine synthesis. Strain #75 was characterized by retarded growth comparing with other mutants. The strains VKM Y-9 (wild type) and L20105 (leu2) were used as the control strains.
(§2) Mutants overproducing lower amounts of riboflavin appeared to be more sensitive to CuSO4 (0.15 mM) than that of the strains producing higher amounts of riboflavin (inhibitory concentration 0.5 mM) (Table 12).

[2] = test system: Candida famata regulatory mutants able to overproduce riboflavin; experiment: as above; type: cell-based
Description: as §1, §2

[3] = test system: Candida famata regulatory mutants able to overproduce riboflavin; experiment: Sensitivity to Co^+2 ions, solid Burkholder medium (Table 16); type: cell-based; design: key: +++: strong growth; ++: weak growth; —: absence of growth
Description: as §1

C. famata = type: cell-based, Candida famata
[4] = test system: Pichia guilliermondii wild type and regulatory mutants (rib81); experiment: Sensitivity after electroporation to K2Cr2O7, Burkholder medium with 0.3 M sucrose (Table 22); type: cell-based; design: key: +++: strong growth; ++: weak growth; —: absence of growth
[5] = test system: Candida famata regulatory mutants able to overproduce riboflavin; experiment: Sensitivity to K2Cr2O7, solid Burkholder medium with 0.3 M sucrose (Table 13); type: cell-based
Description: as §1

## O=S(=O)([O-])[O-].[Cu+2] [CuSO4]
[1]; #2-5, Cu^+2 0.45 mM
  growth: +
[1]; #4-48, Cu^+2 0.45 mM
  growth: +
[1]; #75, Cu^+2 0.45 mM
  growth: +
[1]; L20105 (leu2), Cu^+2 0.6 mM
  growth: +
[1]; L20105-3-2-4, Cu^+2 0.1 mM
  growth: +
[1]; L20105-3-2-8, Cu^+2 0.1 mM
  growth: +
[1]; L20105-3-2-12, Cu^+2 0.1 mM
  growth: +
[2]
  inhibitory concentration, mutants overproducing lower amounts of riboflavin: 0.15 mM
  inhibitory concentration, strains producing higher amounts of riboflavin: 0.5 mM

## [Cl-].[Cl-].[Co+2] [CoCl2]
[3]; #2-5, Co^+2 1.25 μg/ml
  growth: +++
[3]; #2-5, Co^+2 2.5 μg/ml
  growth: ++
[3]; #2-5, Co^+2 5.0 μg/ml
  growth: —
[3]; #2-5, Co^+2 6.25 μg/ml
  growth: —
[3]; #2-5, Co^+2 7.5 μg/ml
  growth: —
[3]; #2-5, Co^+2 8.75 μg/ml
  growth: —
[3]; #2-5, Co^+2 10 μg/ml
  growth: —
[3]; #2-5, Co^+2 11.25 μg/ml
  growth: —
[3]; #2-5, Co^+2 12.5 μg/ml
  growth: —
[3]; #4-48, Co^+2 1.25 μg/ml
  growth: +++
[3]; #4-48, Co^+2 2.5 μg/ml
  growth: ++
[3]; #4-48, Co^+2 3.75 μg/ml
  growth: —
[3]; #4-48, Co^+2 5.0 μg/ml
  growth: —
[3]; #4-48, Co^+2 6.25 μg/ml
  growth: —
[3]; #4-48, Co^+2 7.5 μg/ml
  growth: —
[3]; #4-48, Co^+2 8.75 μg/ml
  growth: —
[3]; #4-48, Co^+2 10 μg/ml
  growth: —
[3]; #4-48, Co^+2 11.25 μg/ml
  growth: —
[3]; #4-48, Co^+2 12.5 μg/ml
  growth: —
[3]; #75, Co^+2 1.25 μg/ml
  growth: ++
[3]; #75, Co^+2 3.75 μg/ml
  growth: —
[3]; #75, Co^+2 5.0 μg/ml
  growth: —
[3]; #75, Co^+2 6.25 μg/ml
  growth: —
[3]; #75, Co^+2 7.5 μg/ml
  growth: —
[3]; #75, Co^+2 8.75 μg/ml
  growth: —
[3]; #75, Co^+2 10 μg/ml
  growth: —
[3]; #75, Co^+2 11.25 μg/ml
  growth: —
[3]; #75, Co^+2 12.5 μg/ml
  growth: —
[3]; L20105 (leu2), Co^+2 1.25 μg/ml
  growth: +++
[3]; L20105 (leu2), Co^+2 2.5 μg/ml
  growth: +++
[3]; L20105 (leu2), Co^+2 3.75 μg/ml
  growth: +++
[3]; L20105 (leu2), Co^+2 5.0 μg/ml
  growth: +++
[3]; L20105 (leu2), Co^+2 6.25 μg/ml
  growth: +++
[3]; L20105 (leu2), Co^+2 7.5 μg/ml
  growth: +++
[3]; L20105 (leu2), Co^+2 8.75 μg/ml
  growth: +++
[3]; L20105 (leu2), Co^+2 10 μg/ml
  growth: +++
[3]; L20105 (leu2), Co^+2 11.25 μg/ml
  growth: ++
[3]; L20105 (leu2), Co^+2 12.5 μg/ml
  growth: ++
[3]; L20105-3-2-1, Co^+2 1.25 μg/ml
  growth: +++
[3]; L20105-3-2-1, Co^+2 2.5 μg/ml
  growth: ++
[3]; L20105-3-2-1, Co^+2 5.0 μg/ml
  growth: —
[3]; L20105-3-2-1, Co^+2 6.25 μg/ml
  growth: —
[3]; L20105-3-2-1, Co^+2 7.5 μg/ml
  growth: —
[3]; L20105-3-2-1, Co^+2 8.75 μg/ml
  growth: —
[3]; L20105-3-2-1, Co^+2 10 μg/ml
  growth: —
[3]; L20105-3-2-1, Co^+2 11.25 μg/ml
  growth: —
[3]; L20105-3-2-1, Co^+2 12.5 μg/ml
  growth: —
[3]; L20105-3-2-8, Co^+2 1.25 μg/ml
  growth: +++
[3]; L20105-3-2-8, Co^+2 2.5 μg/ml
  growth: ++
[3]; L20105-3-2-8, Co^+2 6.25 μg/ml
  growth: —
[3]; L20105-3-2-8, Co^+2 7.5 μg/ml
  growth: —
[3]; L20105-3-2-8, Co^+2 8.75 μg/ml
  growth: —
[3]; L20105-3-2-8, Co^+2 10 μg/ml
  growth: —
[3]; L20105-3-2-8, Co^+2 11.25 μg/ml
  growth: —
[3]; L20105-3-2-8, Co^+2 12.5 μg/ml
  growth: —
[3]; L20105-3-2-9, Co^+2 1.25 μg/ml
  growth: +++
[3]; L20105-3-2-9, Co^+2 2.5 μg/ml
  growth: ++
[3]; L20105-3-2-9, Co^+2 5.0 μg/ml
  growth: —
[3]; L20105-3-2-9, Co^+2 6.25 μg/ml
  growth: —
[3]; L20105-3-2-9, Co^+2 7.5 μg/ml
  growth: —
[3]; L20105-3-2-9, Co^+2 8.75 μg/ml
  growth: —
[3]; L20105-3-2-9, Co^+2 10 μg/ml
  growth: —
[3]; L20105-3-2-9, Co^+2 11.25 μg/ml
  growth: —
[3]; L20105-3-2-9, Co^+2 12.5 μg/ml
  growth: —
[3]; L20105-3-2-12, Co^+2 1.25 μg/ml
  growth: +++
[3]; L20105-3-2-12, Co^+2 2.5 μg/ml
  growth: ++
[3]; L20105-3-2-12, Co^+2 6.25 μg/ml
  growth: —
[3]; L20105-3-2-12, Co^+2 7.5 μg/ml
  growth: —
[3]; L20105-3-2-12, Co^+2 8.75 μg/ml
  growth: —
[3]; L20105-3-2-12, Co^+2 10 μg/ml
  growth: —
[3]; L20105-3-2-12, Co^+2 11.25 μg/ml
  growth: —
[3]; L20105-3-2-12, Co^+2 12.5 μg/ml
  growth: —
[3]; L20105-40-1-11, Co^+2 1.25 μg/ml
  growth: +++
[3]; L20105-40-1-11, Co^+2 2.5 μg/ml
  growth: ++
[3]; L20105-40-1-11, Co^+2 5.0 μg/ml
  growth: —
[3]; L20105-40-1-11, Co^+2 6.25 μg/ml
  growth: —
[3]; L20105-40-1-11, Co^+2 7.5 μg/ml
  growth: —
[3]; L20105-40-1-11, Co^+2 8.75 μg/ml
  growth: —
[3]; L20105-40-1-11, Co^+2 10 μg/ml
  growth: —
[3]; L20105-40-1-11, Co^+2 11.25 μg/ml
  growth: —
[3]; L20105-40-1-11, Co^+2 12.5 μg/ml
  growth: —
[3]; VKM Y-9, Co^+2 1.25 μg/ml
  growth: +++
[3]; VKM Y-9, Co^+2 2.5 μg/ml
  growth: +++
[3]; VKM Y-9, Co^+2 3.75 μg/ml
  growth: +++
[3]; VKM Y-9, Co^+2 5.0 μg/ml
  growth: +++
[3]; VKM Y-9, Co^+2 6.25 μg/ml
  growth: +++
[3]; VKM Y-9, Co^+2 7.5 μg/ml
  growth: +++
[3]; VKM Y-9, Co^+2 8.75 μg/ml
  growth: +++
[3]; VKM Y-9, Co^+2 10 μg/ml
  growth: +++
[3]; VKM Y-9, Co^+2 11.25 μg/ml
  growth: +++
[3]; VKM Y-9, Co^+2 12.5 μg/ml
  growth: +++
C. famata
  concentration non-toxic for yeast growth that stimulates riboflavin synthesis: 15 µg/mL
  higher concentrations tested that inhibited plate growth: 50 µg/mL and 100 µg/mL
  maximal subinhibitory concentration which stimulates flavinogenesis: 25 µg/mL

## [K+].[K+].[O]=[Cr](=[O])([O-])[O][Cr](=[O])(=[O])[O-] [K2Cr2O7]
[4]; #9-20 (leu2), K2Cr2O7 100 μM
  growth: +++
[4]; #9-20 (leu2), K2Cr2O7 150 μM
  growth: +++
[4]; #9-20 (leu2), K2Cr2O7 200 μM
  growth: +++
[4]; #9-20 (leu2), K2Cr2O7 250 μM
  growth: +++
[4]; #9-20 (leu2), K2Cr2O7 300 μM
  growth: +++
[4]; #9-20 (leu2), K2Cr2O7 350 μM
  growth: +++
[4]; #9-20 (leu2), K2Cr2O7 450 μM
  growth: —
[4]; #9-20 (leu2), K2Cr2O7 500 μM
  growth: —
[4]; #9-20 (leu2), K2Cr2O7 550 μM
  growth: —
[4]; #9-20 (leu2), K2Cr2O7 600 μM
  growth: —
[4]; ATCC9058, K2Cr2O7 100 μM
  growth: +++
[4]; ATCC9058, K2Cr2O7 150 μM
  growth: +++
[4]; ATCC9058, K2Cr2O7 200 μM
  growth: +++
[4]; ATCC9058, K2Cr2O7 250 μM
  growth: +++
[4]; ATCC9058, K2Cr2O7 300 μM
  growth: +++
[4]; ATCC9058, K2Cr2O7 350 μM
  growth: +++
[4]; ATCC9058, K2Cr2O7 450 μM
  growth: —
[4]; ATCC9058, K2Cr2O7 500 μM
  growth: —
[4]; ATCC9058, K2Cr2O7 550 μM
  growth: —
[4]; ATCC9058, K2Cr2O7 600 μM
  growth: —
[5]; medium with 0.3 M sucrose
  concentration inhibiting growth of strain #75: 100 µM
  concentration inhibiting growth of strains with higher riboflavin production: 175 µM
  concentration totally inhibiting growth of mutants with lower levels of riboflavin overproduction: 125 µM
[5]; riboflavin overproducers and wild-type strains
  effect of subinhibitory concentrations on flavinogenesis of all tested strains: stimulated flavinogenesis
